2 compounds from US9775881B2, “Methods of treating mesothelioma by administration of compounds comprising FGFR1 ECD” (Five Prime Therapeutics, Inc., priority 2013, dated 2017) can be followed below.

Common to all, as to assay type: in vivo, mouse
Assay [1] concerns SK-Hep-1 xenograft model. Description: SK-Hep-1 xenograft model, FGFR1-ECD.339-Fc alone and with pazopanib. Particulars: 15 mg/kg IP twice per week, p=0.0076. The procedure:
(§1) The cells were implanted subcutaneously over the right flank of the mice at 5×10^6 cells/100 μl/mouse.

Assay [2] concerns HepG2 xenograft model. Description: HepG2 xenograft model, FGFR1-ECD.339-Fc single agent. The note with it: 15 mg/kg IP twice per week. Here is the method: (§2) Six week old female CB17 SCID mice were purchased from Charles River Laboratories (Wilmington, Mass.) and were acclimated for 1 week before the start of the study. Human hepatocellular carcinoma (HCC) cell lines HepG2 and Hep3B were purchased from ATCC (Manassas, Va.) and Huh7 was purchased from JCRB (Japanese Collection of Research Bioresources). The cells were cultured for three passages in complete growth medium to expand for implantation. HepG2 and Hep3B cells were cultured in Dulbecco's Modified Eagle Medium (DMEM) supplemented with 10% Fetal Bovine Serum (FBS), 2 mM L-Glutamine, and Penicillin-Streptomycin antibiotic solution. […]
(§3) When the cultured cells reached 85-90% confluence, cells were harvested and resuspended in cold Ca^2+ and Mg^2+ free phosphate buffered saline (PBS) containing 50% Matrigel. […] Mice were monitored twice weekly following cell implantation for tumor growth.
(§4) FGFR1-ECD.339-Fc (FP-1039) or albumin as a negative control was dosed at 15 mg/kg via intraperitoneal injection twice per week. […] Upon initiation of therapy, tumor sizes were measured in each mouse twice weekly. The length and width of each tumor was measured using calipers and the tumor size calculated according to the formula Tumor size (mm^3)=[…]. […]
(§5) Comparisons of tumor volume as a consequence of treatment with FP-1039 were determined to be statistically significant if P<0.05. […]

In a further assay the test system is ACHN xenograft model. Description: ACHN xenograft model, FGFR1-ECD.339-Fc alone and with pazopanib. The procedure:
as §1

For another assay, the system named is Huh7 xenograft model. In words: Huh7 xenograft model, FGFR1-ECD.339-Fc single agent. The note with it: 15 mg/kg IP twice per week. Here is the method:
as §2, §3, §4, §5

Assay [3] deals with SK-Hep-1 xenograft model. In words: SK-Hep-1 xenograft model, FGFR1-ECD.339-Fc alone and with sorafenib. Particulars: 61 days, FGFR1-ECD.339-Fc 15 mg/kg IP twice per week (p=0.0036), sorafenib 20 mg/kg oral five times per week (p<0.0001). The procedure: as §1
In a further assay the test system is HLF xenograft model. Description: HLF xenograft model, FGFR1-ECD.339-Fc alone and with sorafenib. The note with it: 24 days, FGFR1-ECD.339-Fc 15 mg/kg IP twice per week (p=0.0175), sorafenib 20 mg/kg oral five times per week (p=0.0020).
Assay [4] concerns HepG2 xenograft model. Description: HepG2 xenograft model, FGFR1-ECD.339-Fc alone and with sorafenib.
Protocol: FGFR1-ECD.339-Fc as a single agent, and in combination with sorafenib, was also tested in a HepG2 xenograft model.
The next assay has as its system NCI-H226 xenograft. Description: NCI-H226 mesothelioma tumor xenograft model, dose response. Particulars: SCID mice, day 29. The procedure: Seven week old female SCID mice (Taconic, Hudson, N.Y.) were implanted subcutaneously with NCI-H226 cells (ATCC, Manassas, Va.) at 5×10^6 cells/mouse and tumor-bearing mice were randomized into 4 groups (n=8/group) when tumors reached ˜176-277 mm^3 in size. Mice were treated with FGFR1-ECD.339-Fc at three different concentrations (1.024, 5.12 or 25.6 mg/kg) three times a week (t.i.w.) for 29 days. Tumor size and body weights were measured twice a week.

In assay [5] the test system is NCI-H226 (mesothelioma) xenograft. In words: Blood vessel density by MECA-32 IHC in NCI-H226 xenograft tumors. Particulars: NCI-H226 tumors harvested day 30; 1.024, 5.12 or 25.6 mg/kg t.i.w. for 29 days. Here is the method: Endothelial cell immunohistochemical (IHC) staining using a rat anti-mouse pan-endothelial cell antigen antibody (MECA-32; BD Biosciences, Franklin Lakes, N.J.) was performed on tumors from a NCI-H226 (mesothelioma) xenograft study. Tumor-bearing mice were treated with either vehicle (0.9% saline) or increasing doses of FGFR1-ECD.339-Fc (1.024, 5.12, or 25.6 mg/kg) three times a week (t.i.w.) for 29 days, as described above. Tumors were harvested on day 30. Quantification of MECA-32 IHC staining was analyzed by measuring the number of blood vessels/tissue area.

Another assay relates to Caki-2 xenograft model. In words: Caki-2 xenograft model, FGFR1-ECD.339-Fc alone and with pazopanib. Particulars: FGFR1-ECD.339-Fc 15 mg/kg IP twice per week, pazopanib 100 mg/kg oral daily. Here is the method: as §1
For a further assay, the system named is MSTO-211H xenograft. In words: MSTO-211H mesothelioma tumor xenograft model, dose response. The note with it: SCID mice, day 29. Here is the method: Five to six week old female SCID mice were implanted subcutaneously with MSTO-211H cells (ATCC, Manassas, Va.) at 5×10^6 cells/mouse and tumor-bearing mice were randomized into 3 groups (n=10/group) when tumors reached ˜150-225 mm^3 in size. Mice were treated with FGFR1-ECD.339-Fc at two different concentrations (5.12 or 25.6 mg/kg) three times a week (t.i.w.) for 29 days. Tumor size and body weights were measured twice a week.

Another assay relates to Hep3B xenograft model. In words: Hep3B xenograft model, FGFR1-ECD.339-Fc single agent. Particulars: 15 mg/kg IP twice per week. Here is the method: as §2, §3, §4, §5
A further assay deals with A498 xenograft model. In words: A498 xenograft model, FGFR1-ECD.339-Fc alone and with pazopanib. Particulars: FGFR1-ECD.339-Fc 15 mg/kg IP twice per week, pazopanib 100 mg/kg oral daily. Here is the method: as §1
The test system of a further assay is 786-0 xenograft model. In words: 786-0 xenograft model, FGFR1-ECD.339-Fc alone and with pazopanib. Particulars: FGFR1-ECD.339-Fc 15 mg/kg IP twice per week, pazopanib 100 mg/kg oral daily. The procedure: as §1

Protocol for HLF xenograft model: Six week old female CB17 SCID mice were purchased from Charles River Laboratories (Wilmington, Mass.) and were acclimated for 1 week before the start of the study. […] The cells were cultured for three passages in complete growth medium to expand for implantation. HLF cells were cultured in Dulbecco's Modified Eagle Medium (DMEM) supplemented with 10% Fetal Bovine Serum (FBS) and Antibiotic-Antimycotic solution. Cells were grown at 37° C. in a humidified atmosphere with 5% CO2.
The cells were implanted subcutaneously over the right flank of the mice at 2.5×10^6 cells/100 μl/mouse. Mice were monitored twice weekly following cell implantation for tumor growth. […]
FGFR1-ECD.339-Fc or albumin as a negative control, was dosed at 15 mg/kg via intraperitoneal (IP) injection twice per week. […] Upon initiation of therapy, tumor sizes were measured in each mouse twice weekly. The length and width of each tumor was measured using calipers and the tumor size calculated according to the formula above. […]
Comparisons of tumor volume as a consequence of treatment with FGFR1-ECD.339-Fc and/or sorafenib were determined to be statistically significant if P<0.05. P-values were calculated using unpaired, two-tailed t-test analyses of the calculated tumor volumes on day 24 following initiation of treatment.

Turning to “FGFR1-ECD.339-Fc: human FGFR1 extracellular domain ending at amino acid 339 fused to Fc; SEQ ID NO: 6 (mature form) or SEQ ID NO: 5 (with signal peptide)”, the “response of xenograft model to single therapy (tumor volume)” value (from here on “response of xenograft model”) in the assay with SK-Hep-1 xenograft model [1] was “responded”; in the assay with ACHN xenograft model (FGFR1-ECD.339-Fc 15 mg/kg IP twice per week), “responded”; with SK-Hep-1 xenograft model [3], “responded”; in the assay with HLF xenograft model, “responded”; in the assay on Caki-2 xenograft model, “little response”; with A498 xenograft model, “little response”. Besides, the “response of xenograft model” value with 786-0 xenograft model is “did not respond”. Besides, the “single agent efficacy (tumor volume)” value in the assay on HepG2 xenograft model [2], in the assay with Huh7 xenograft model and with Hep3B xenograft model was “no single agent efficacy” in each case. The tumor growth inhibition in the assay with ACHN xenograft model (CB17 SCID mice, 15 mg/kg IP twice per week, day 63, p<0.0001) was determined as 51%. Moreover, the “single agent effect on tumor growth” value in the assay with HepG2 xenograft model [4] is “not effective as a single agent”. Besides, the “tumor growth inhibition (TGI)” value in the assay on NCI-H226 xenograft (1.024 mg/kg three times a week) came to 16.2%; in the assay with NCI-H226 xenograft (5.12 mg/kg three times a week), 56.8%; in the assay on NCI-H226 xenograft (25.6 mg/kg three times a week), 77.8%; with MSTO-211H xenograft (5.12 mg/kg three times a week) it was 20.3%; with MSTO-211H xenograft (25.6 mg/kg three times a week), 50.1%. Moreover, in assay [5], the “blood vessel density (MECA-32 IHC), inner region” value is recorded as “no significant differences”. Moreover, in assay [5], the “blood vessel density (MECA-32 IHC), outer region” value was “dose-dependent and a statistically-significant reduction”. In addition, in assay [5], the “blood vessel density (MECA-32 IHC), outer+inner region (whole tumor mass)” value is “dose-dependent and a statistically-significant reduction”.

With `CNC(=O)c1cc(Oc2ccc(NC(=O)Nc3ccc(Cl)c(C(F)(F)F)c3)cc2)ccn1` [sorafenib, reference compound], the “response of xenograft model” value with SK-Hep-1 xenograft model [3] and in the assay with HLF xenograft model was “responded” throughout. Besides, in the assay with HepG2 xenograft model [4], the “single agent effect on tumor growth” value was “inhibits tumor growth”.
